Laboratory results from patent US20060189539A1, “Novel GnRH analogues with antitumour effects and pharmaceutical compositions thereof” (priority 1994, published 2006).
Non-standard residues stand in square brackets, D forms with d. Residues, ends and D or L forms follow the SMILES beside them. dPhe(4-Cl) = N[C@H](Cc1ccc(Cl)cc1)C(=O)O

Assays:
human tumor cell lines = assay: Colony formation, Example 48, comparison with control D-Trp6-hGnRH; type: cell-based; conditions: data of Table VIII
Description: (§1) The examination gives accurate information about the cell-damaging effect of the substance tested as a function of varying doses. The treatment was carried out once; the colonies formed from the surviving cells were counted after 8-12 days. […] A part of the arrested cells again entered the cycle, an other part of them might be destroyed (apoptosis). […] In the case of a dose-response investigation, colonies containing less than 15 cells were not counted. 300 cells were put into each Petri dishes of 3.5 cm in diameter. The treatment was once carried out 24 hours after setting, then the colonies formed were counted after 8-12 days. The cells were treated once after 24 hours with 1-50 μM of various GnRH analogues of Examples above or with 1-50 μM of GnRH-III, respectively. The percentages of inhibition obtained on MCF-7, MDA-MB-231, PC3 and Ishikawa cells, respectively, together with the dose of the active agent used are shown in Table VIII.
In these studies the D-Trp6-hGnRH analogue (Sigma Co.) commonly used in the tumour therapy was employed as control.

[1] = test system: MCF-7 human mammary carcinoma cell line; assay: Inhibition of colony formation (dose-survival), Example 48; type: cell-based
Source text: MCF-7 human mammary carcinoma cell line was stabilized in 1973 by Soule et al. from the pleural fluid of a patient suffering from mammary carcinoma. MDA-MB-231 human mammary carcinoma cell line was isolated and stabilized by Cailleau et al. in 1974 similarly from pleural fluid. Both cell lines grow in monolayer. […] MCF-7 cell line is estradiol receptor (ER)-positive containing proteins specifically binding GnRH. Thus, it represents, a useful model system for investigating the direct effect of GnRH mediated by the GnRH receptor. Being ER-negative and GnRH receptor-positive, MDA-MB-231 cell line is similarly suitable to study the direct effect of GnRH. PC3 human prostate carcinoma cell line was stabilized in cell culture by Kaighn et al. in 1979. The cells are of epithelial type and form compact colonies in clonogenic assays. The Ishikawa cell line originates from human endometrial adenocarcinoma [M. Nishida et al.: Acta Obstet. Gynecol. Jpn. 37, 1103-1111 (1985)], it is epithelial in its character and contains steroid-as well as GnRH receptors. The examination gives accurate information about the cell-damaging effect of the substance tested as a function of varying doses. The treatment was carried out once; the colonies formed from the surviving cells were counted after 8-12 days. […] A part of the arrested cells again entered the cycle, an other part of them might be destroyed (apoptosis). […] The treatment was once carried out 24 hours after setting, then the colonies formed were counted after 8-12 days. The cells were treated once after 24 hours with 1-50 μM of various GnRH analogues of Examples above or with 1-50 μM of GnRH-III, respectively. The percentages of inhibition obtained on MCF-7, MDA-MB-231, PC3 and Ishikawa cells, respectively, together with the dose of the active agent used are shown in Table VIII.

[2] = test system: MDA-MB-231 human mammary carcinoma cell line; assay: as above; type: cell-based
Source text: (§2) MCF-7 human mammary carcinoma cell line was stabilized in 1973 by Soule et al. from the pleural fluid of a patient suffering from mammary carcinoma. MDA-MB-231 human mammary carcinoma cell line was isolated and stabilized by Cailleau et al. in 1974 similarly from pleural fluid. Both cell lines grow in monolayer. MCF-7 and MDA-MB-231 human mammary carcinoma cell lines are maintained in plastic flasks (Greiner), in Dulbecco-modified Eagle-MEM (DMEM, GIBCO) liquid nutrient medium containing 10% of fetal calf serum. MCF-7 cell line is estradiol receptor (ER)-positive containing proteins specifically binding GnRH. Thus, it represents, a useful model system for investigating the direct effect of GnRH mediated by the GnRH receptor. Being ER-negative and GnRH receptor-positive, MDA-MB-231 cell line is similarly suitable to study the direct effect of GnRH. PC3 human prostate carcinoma cell line was stabilized in cell culture by Kaighn et al. in 1979. The cells are of epithelial type and form compact colonies in clonogenic assays. The Ishikawa cell line originates from human endometrial adenocarcinoma [M. Nishida et al.: Acta Obstet. Gynecol. Jpn. 37, 1103-1111 (1985)], it is epithelial in its character and contains steroid-as well as GnRH receptors.
as §1

[3] = test system: Ishikawa endometrium tumour cell culture; assay: as above; type: cell-based, human; conditions: 50 μM
Source text: as §2, §1

[4] = test system: PC3 prostate tumour cell culture; assay: as above; type: cell-based, human; conditions: for % Inhibition of colony formation: 50 μM; for Effect on colony-forming ability: within the dose range used (1-50 μM)
Source text: as §2, §1

[5] = test system: Ishikawa human endometrium carcinoma cell line; assay: Inhibition of colony formation (dose-survival), Example 18; type: cell-based; conditions: 50 μM
Source text: (§3) Human cell lines used in in vitro experiments. MCF-7 human mammary tumour cell line was stabilized in 1973 by Soule et al. from the pleural fluid of mammary carcinoma patients. The cells grow in monolayer and are epithelial in their character. MDA-MB-231 human mammary carcinoma cell line was isolated and stabilized in 1974 by Cailleau et al. similarly from pleural fluid. These cells also grow in monolayer. PC3 human prostate carcinoma cell line was stabilized 20 in 1979 in cell culture by Kaighn et al.; the cells are of simple epithelium type and form compact colonies in clonogenic assays. Ishikawa cell line originated from adenocarcinoma of human endometrium [Nishida et al.: Obstet. Gynecol. Jpn, 37, 25 1103-1111 (1985)], has epithelial character and contains steroid as well as GnRH receptors. Human tumour cell lines are maintained in plastic flasks (Greiner) in Dulbecco-6modified Eagle-MEM (DMEM GIBCO) nutritive medium. The medium used herein contained 10% of fetal calf serum (FCS).
(§4) In the case of cytostatics the cell-damaging effect is not cell-specific. […] One part of the arrested cells again go into the cycle, the other part may perish (apoptosis). […] The investigations were carried out on MCF-7 and MDA-MB-231 human mammary carcinoma cell lines, PC3 human prostate 15 carcinoma cell line and Ishikawa human endometrium carcinoma cell line. Threehundred cells were set into Petri dishes of 3.5 cm in diameter each. The treatment was carried out once, 24 hours following the explantation, then the colonies formed were counted after 9 to 12 days.

[6] = test system: PC3 human prostate carcinoma cell line; assay: as above; type: cell-based; conditions: 50 μM
Source text: as §3, §4

[7] = test system: MCF-7 human mammary carcinoma cell line; assay: as above; type: cell-based; conditions: 50 μM
Source text: as §3, §4

MXT mouse mammary tumour = assay: In vivo antitumour effect on MXT mouse mammary tumour; parameters: species or system CBA/Ca mice
Description: The MXT mouse mammary carcinoma contains ER and PgR proteins; furthermore, it contains also GnRH receptors; therefore, this in vivo tumor model is suitable for studying both the direct and indirect effects. The treatment of mice bearing MXT mammary tumour was commenced on the day following transplantation. […] The animals were daily treated in s.c. route starting from the day following transplantation of MXT mouse mammary tumour. […] MI-1544: 75 μg/day/animal; MI-1892: 75 μg/day/animal.

Molecule	Inhibitory effect on colony formation compared with control D-Trp6-hGnRH (human tumor cell lines)	% Inhibition of colony formation ([1]; 50 μM) [%]	% Inhibition of colony formation ([2]; 50 μM) [%]	% Inhibition of colony formation [3] [%]	also measured
[Lys(ε-Ac)]^4-GnRH-III [Compound 7]	exceeded the inhibitory effect of control	52	42	14	% Inhibition of colony formation ([2]; 10 μM): 31%; % Inhibition of colony formation [4]: 0%; Effect on colony-forming ability [4]: did not influence
CC(C)C[C@H](NC(=O)[C@@H](Cc1c[nH]c2ccccc12)NC(=O)[C@H](Cc1ccc(O)cc1)NC(=O)[C@H](CO)NC(=O)[C@H](Cc1c[nH]c2ccccc12)NC(=O)[C@H](Cc1c[nH]cn1)NC(=O)[C@@H]1CCC(=O)N1)C(=O)N[C@@H](CCCNC(=N)N)C(=O)N1CCC[C@H]1C(=O)NCC(N)=O [D-Trp6-hGnRH, pGlu-His-Trp-Ser-Tyr-D-Trp-Leu-Arg-Pro-Gly-NH2, reference compound]	–	36.7	38.7	–	% Inhibition of colony formation ([1]; 10 μM): 17.1%; % Inhibition of colony formation ([2]; 10 μM): 15.7%
Phe^7-GnRH-III [Compound 15]	weak if any effect	–	21	–	–
{D-Lys[n-poly(N-vinylpyrrolidone-co-maleic acid)-Gly-Phe-Leu-Gly]}6,-GnRH [P-GFLG-609]	–	–	–	–	% Inhibition of colony formation ([1]; 10 μM): 40%
Lys^5, D-Trp^6-hGnRH [Compound 17]	twice stronger inhibition	65	63	17	% Inhibition of colony formation ([2]; 10 μM): 30%; % Inhibition of colony formation [4]: 18%; Effect on colony-forming ability [4]: weakly inhibited
[Lys(ε-Fmoc)]^5-GnRH-III [Compound 1]	weak if any effect	–	–	–	–
{Lys[n-poly(N-vinylpyrrolidone-co-maleic acid)-Gly-Phe-Leu-Gly-]}5,cyclo(Asp6-Lys8)-GnRH-III [P-GFLG-Lys5-cyclo(Asp6,Lys8)-GnRH-III]	–	–	–	–	% Inhibition of colony formation [5]: 19%; % Inhibition of colony formation [6]: 100%
Ac-D-Trp^1,3,D-Cpa2,{Lys[n-poly(N-vinylpyrrolidone-co-maleic acid)-Ahx]}5,[a-Asp(DEA)]6,D-Ala10-GnRH [P-Ahx-1892]	–	31	–	–	–
Lys^5,cyclo[Asp^6-Lys^8]-GnRH-III [Compound 3]	exceeded the inhibitory effect of control	44	–	13	% Inhibition of colony formation [5]: 13%; % Inhibition of colony formation [7]: 44%
Glu^6-GnRH-III [Compound 8]	exceeded the inhibitory effect of control	–	25	2	% Inhibition of colony formation [4]: 31%
CC(=O)N[C@H](Cc1c[nH]c2ccccc12)C(=O)N[C@H](Cc1ccc(Cl)cc1)C(=O)N[C@H](Cc1c[nH]c2ccccc12)C(=O)N[C@@H](CO)C(=O)N[C@@H](Cc1ccc(O)cc1)C(=O)N[C@H](CCCCN)C(=O)N[C@@H](CC(C)C)C(=O)N[C@@H](CCCNC(=N)N)C(=O)N1CCC[C@H]1C(=O)N[C@H](C)C(N)=O [MI-1544, Ac-D-Trp^1,3,D-Cpa^2,D-Lys^6, D-Ala^10-hGnRH] (Ac-[dW][dPhe(4-Cl)][dW]SY[dK]LRP[dA]-NH2)	–	–	–	–	Tumour volume as control (%) (MXT mouse mammary tumour; 75 μg/day/animal s.c., day 20): 54%; Inhibition % (MXT mouse mammary tumour; 1 × 75 μg daily s.c.): 46%; Tumour volume as control (%) (MXT mouse mammary tumour; 1 × 75 μg daily s.c., Treatment weeks: 20): 54%
[Trp(For-Ind)]^3,7-GnRH-III [Compound 14]	approximated the activity of the control	–	–	24	–
H-Glu^1, D-Trp^6-hGnRH [Compound 19]	approximated the activity of the control	32.7	–	–	% Inhibition of colony formation ([1]; 10 μM): 16.8%
Lys^5-GnRH-III [Compound 2]	–	0	0	–	–
